Residues, ends and D or L forms follow the SMILES beside them.
system: E. coli O157:H7; format: cell-based, Escherichia coli; conditions: screening-stage peptides tested at 1, 6, 12 and 25 μg/mL
Excerpt: In the present invention we used the statistical thermodynamics algorithm TANGO to identify aggregation prone regions (APR) in the proteome of E. coli strain O157:H7. This yielded 3535 sequences of at least 6 amino acids in length and a TANGO score of at least 20%. In order to generate efficient aggregation seeds, we employed a previously devised tandem repeat design ^19, 21, in which the APRs are repeated once and separated by a linker. Given the length limitation on solid phase peptide synthesis with regard to yield and purity, we focused on the 1542 APRs with a length of 7 amino acids. In order to maximize the potential of these peptides to induce aggregation in E. coli, we ranked the APRs by their frequency of occurrence throughout the E. coli proteome, allowing a single amino acid mismatch, and selected the first 75 most frequently occurring sequences from this list (Table 4). In the design pattern, and in order to increase the colloidal stability of these aggregating peptides, the APRs are flanked by aggregation gatekeepers, a class of residues that was previously shown to reduce aggregation kinetics^22-24. […] To generate the tandem we used a single proline residue as a linker between the gatekeeper-flanked APRs. In addition to the 75 peptides generated in this fashion, we added 2 variants of each of the first 25 peptides in the list by randomly mutating one residue in the first APR repeat to arginine to further modulate the aggregation propensity of the peptides (Table 4). All the peptides were generated using solid phase synthesis at 200 nmole scale and dissolved in DMSO to a theoretical stock concentration of 2 mM (assuming 100% synthesis efficiency). Peptide activity on the growth of E. coli O157:H7 was measured at dilutions of the peptide corresponding to concentrations of 1, 6, 12 and 25 μg/mL. […] The Matthews Correlations Coefficient (MCC) with the measured activity was 0.1 at 12 μg/mL and 0.24 at 25 μg/mL.

Compound	E. coli O157 (apparent MIC in screen)
CC(C)C[C@H](NC(=O)[C@H](CC(C)C)NC(=O)[C@H](CC(C)C)NC(=O)[C@H](CCCNC(=N)N)NC(=O)[C@@H]1CCCN1C(=O)[C@H](CCCNC(=N)N)NC(=O)[C@H](CCCNC(=N)N)NC(=O)[C@@H](NC(=O)[C@H](CC(C)C)NC(=O)[C@H](CC(C)C)NC(=O)[C@H](CO)NC(=O)[C@H](CCCNC(=N)N)NC(=O)[C@H](CC(C)C)NC(=O)[C@H](CC(C)C)NC(=O)[C@@H](N)CCCNC(=N)N)C(C)C)C(=O)N[C@@H](CO)C(=O)N[C@@H](CC(C)C)C(=O)N[C@@H](CC(C)C)C(=O)N[C@H](C(=O)N[C@@H](CCCNC(=N)N)C(=O)N[C@@H](CCCNC(=N)N)C(=O)O)C(C)C [Peptide P101] (H-RLLRSLLVRRPRLLLSLLVRR-OH; N-terminus and C-terminus assumed)	12 µg/mL
CC(C)C[C@H](NC(=O)[C@H](C)NC(=O)[C@H](CC(C)C)NC(=O)[C@H](CCCNC(=N)N)NC(=O)[C@@H]1CCCN1C(=O)[C@H](CCCNC(=N)N)NC(=O)[C@H](CCCNC(=N)N)NC(=O)[C@H](CC(C)C)NC(=O)[C@H](CC(C)C)NC(=O)[C@H](CC(C)C)NC(=O)[C@H](C)NC(=O)[C@H](CC(C)C)NC(=O)[C@H](C)NC(=O)[C@H](CC(C)C)NC(=O)[C@@H](N)CCCNC(=N)N)C(=O)N[C@@H](C)C(=O)N[C@@H](CC(C)C)C(=O)N[C@@H](CC(C)C)C(=O)N[C@@H](CC(C)C)C(=O)N[C@@H](CCCNC(=N)N)C(=O)N[C@@H](CCCNC(=N)N)C(=O)O [Peptide P4] (H-RLALALLLRRPRLALALLLRR-OH; N-terminus and C-terminus assumed)	6 µg/mL
CC(C)C[C@H](NC(=O)[C@H](CC(N)=O)NC(=O)[C@H](CC(C)C)NC(=O)[C@H](CC(C)C)NC(=O)[C@@H](NC(=O)[C@H](CC(C)C)NC(=O)[C@H](CC(C)C)NC(=O)[C@H](CCCNC(=N)N)NC(=O)[C@@H]1CCCN1C(=O)[C@H](CCCNC(=N)N)NC(=O)[C@H](CCCNC(=N)N)NC(=O)[C@H](CC(C)C)NC(=O)[C@H](CC(N)=O)NC(=O)[C@H](CC(C)C)NC(=O)[C@H](CC(C)C)NC(=O)[C@@H](NC(=O)[C@H](CC(C)C)NC(=O)[C@H](CC(C)C)NC(=O)[C@@H](N)CCCNC(=N)N)[C@@H](C)O)[C@@H](C)O)C(=O)N[C@@H](CCCNC(=N)N)C(=O)N[C@@H](CCCNC(=N)N)C(=O)O [Peptide P49] (H-RLLTLLNLRRPRLLTLLNLRR-OH; N-terminus and C-terminus assumed)	12 µg/mL
CC(C)C[C@H](NC(=O)CNC(=O)[C@@H](NC(=O)[C@H](Cc1ccccc1)NC(=O)[C@H](CC(C)C)NC(=O)[C@H](CCCNC(=N)N)NC(=O)[C@@H]1CCCN1C(=O)[C@H](CCCNC(=N)N)NC(=O)[C@H](CCCNC(=N)N)NC(=O)[C@H](CC(C)C)NC(=O)[C@H](C)NC(=O)[C@H](CC(C)C)NC(=O)CNC(=O)[C@@H](NC(=O)[C@H](Cc1ccccc1)NC(=O)[C@H](CC(C)C)NC(=O)[C@@H](N)CCCNC(=N)N)C(C)C)C(C)C)C(=O)N[C@@H](C)C(=O)N[C@@H](CC(C)C)C(=O)N[C@@H](CCCNC(=N)N)C(=O)N[C@@H](CCCNC(=N)N)C(=O)O [Peptide P26] (H-RLFVGLALRRPRLFVGLALRR-OH; N-terminus and C-terminus assumed)	25 µg/mL
CC(C)C[C@H](NC(=O)[C@H](C)NC(=O)[C@@H](N)CCCNC(=N)N)C(=O)N[C@@H](CC(C)C)C(=O)N[C@H](C(=O)N[C@@H](C)C(=O)N[C@@H](CCCNC(=N)N)C(=O)N[C@@H](CC(C)C)C(=O)N[C@@H](CCCNC(=N)N)C(=O)N[C@@H](CCCNC(=N)N)C(=O)N1CCC[C@H]1C(=O)N[C@@H](CCCNC(=N)N)C(=O)N[C@@H](C)C(=O)N[C@@H](CC(C)C)C(=O)N[C@@H](CC(C)C)C(=O)N[C@H](C(=O)N[C@@H](C)C(=O)N[C@H](C(=O)N[C@@H](CC(C)C)C(=O)N[C@@H](CCCNC(=N)N)C(=O)N[C@@H](CCCNC(=N)N)C(=O)O)C(C)C)[C@@H](C)O)[C@@H](C)O [Peptide P91] (H-RALLTARLRRPRALLTAVLRR-OH; N-terminus and C-terminus assumed)	25 µg/mL
CC(C)C[C@H](NC(=O)[C@H](C)NC(=O)[C@H](CCCNC(=N)N)NC(=O)[C@@H]1CCCN1C(=O)[C@H](CCCNC(=N)N)NC(=O)[C@H](CCCNC(=N)N)NC(=O)[C@H](CC(C)C)NC(=O)[C@H](CC(C)C)NC(=O)[C@@H](NC(=O)[C@@H](NC(=O)[C@H](CC(C)C)NC(=O)[C@H](CC(C)C)NC(=O)[C@H](C)NC(=O)[C@@H](N)CCCNC(=N)N)[C@@H](C)O)[C@@H](C)O)C(=O)N[C@@H](CC(C)C)C(=O)N[C@H](C(=O)N[C@H](C(=O)N[C@@H](CC(C)C)C(=O)N[C@@H](CC(C)C)C(=O)N[C@@H](CCCNC(=N)N)C(=O)N[C@@H](CCCNC(=N)N)C(=O)O)[C@@H](C)O)[C@@H](C)O [Peptide P5] (H-RALLTTLLRRPRALLTTLLRR-OH; N-terminus and C-terminus assumed)	12 µg/mL
CC(C)C[C@H](NC(=O)[C@H](C)NC(=O)[C@@H](NC(=O)[C@H](CC(C)C)NC(=O)[C@H](CCC(N)=O)NC(=O)[C@H](CCCNC(=N)N)NC(=O)[C@@H]1CCCN1C(=O)[C@H](CCCNC(=N)N)NC(=O)[C@H](CCCNC(=N)N)NC(=O)[C@@H](NC(=O)[C@H](CCCNC(=N)N)NC(=O)[C@H](CC(C)C)NC(=O)[C@H](C)NC(=O)[C@@H](NC(=O)[C@H](CC(C)C)NC(=O)[C@H](CCC(N)=O)NC(=O)[C@@H](N)CCCNC(=N)N)C(C)C)C(C)C)C(C)C)C(=O)N[C@@H](CC(C)C)C(=O)N[C@H](C(=O)N[C@@H](CCCNC(=N)N)C(=O)N[C@@H](CCCNC(=N)N)C(=O)O)C(C)C [Peptide P117] (H-RQLVALRVRRPRQLVALLVRR-OH; N-terminus and C-terminus assumed)	25 µg/mL
CC[C@H](C)[C@H](NC(=O)[C@H](CC(C)C)NC(=O)[C@H](CC(C)C)NC(=O)[C@H](C)NC(=O)[C@H](CCCNC(=N)N)NC(=O)[C@@H]1CCCN1C(=O)[C@H](CCCNC(=N)N)NC(=O)[C@H](CCCNC(=N)N)NC(=O)[C@H](CC(C)C)NC(=O)[C@H](CC(C)C)NC(=O)[C@@H](NC(=O)[C@@H](NC(=O)[C@H](CCCNC(=N)N)NC(=O)[C@H](CC(C)C)NC(=O)[C@H](C)NC(=O)[C@@H](N)CCCNC(=N)N)[C@@H](C)CC)[C@@H](C)O)C(=O)N[C@H](C(=O)N[C@@H](CC(C)C)C(=O)N[C@@H](CC(C)C)C(=O)N[C@@H](CCCNC(=N)N)C(=O)N[C@@H](CCCNC(=N)N)C(=O)O)[C@@H](C)O [Peptide P123] (H-RALRITLLRRPRALLITLLRR-OH; N-terminus and C-terminus assumed)	25 µg/mL
CC(C)C[C@H](NC(=O)[C@H](CCC(N)=O)NC(=O)[C@H](CCCNC(=N)N)NC(=O)[C@@H]1CCCN1C(=O)[C@H](CCCNC(=N)N)NC(=O)[C@H](CCCNC(=N)N)NC(=O)[C@H](CC(C)C)NC(=O)[C@H](CC(C)C)NC(=O)[C@@H](NC(=O)[C@H](CC(C)C)NC(=O)[C@H](CC(C)C)NC(=O)[C@H](CC(C)C)NC(=O)[C@H](CCC(N)=O)NC(=O)[C@@H](N)CCCNC(=N)N)[C@@H](C)O)C(=O)N[C@@H](CC(C)C)C(=O)N[C@@H](CC(C)C)C(=O)N[C@H](C(=O)N[C@@H](CC(C)C)C(=O)N[C@@H](CC(C)C)C(=O)N[C@@H](CCCNC(=N)N)C(=O)N[C@@H](CCCNC(=N)N)C(=O)O)[C@@H](C)O [Peptide P72] (H-RQLLLTLLRRPRQLLLTLLRR-OH; N-terminus and C-terminus assumed)	25 µg/mL
CC(C)C[C@H](NC(=O)[C@H](C)NC(=O)[C@H](CCCNC(=N)N)NC(=O)[C@@H]1CCCN1C(=O)[C@H](CCCNC(=N)N)NC(=O)[C@H](CCCNC(=N)N)NC(=O)[C@H](CC(C)C)NC(=O)[C@H](CC(C)C)NC(=O)[C@H](C)NC(=O)[C@@H](NC(=O)[C@H](CCCNC(=N)N)NC(=O)[C@H](CC(C)C)NC(=O)[C@H](C)NC(=O)[C@@H](N)CCCNC(=N)N)C(C)C)C(=O)N[C@@H](C)C(=O)N[C@H](C(=O)N[C@@H](C)C(=O)N[C@@H](CC(C)C)C(=O)N[C@@H](CC(C)C)C(=O)N[C@@H](CCCNC(=N)N)C(=O)N[C@@H](CCCNC(=N)N)C(=O)O)C(C)C [Peptide P87] (H-RALRVALLRRPRALAVALLRR-OH; N-terminus and C-terminus assumed)	25 µg/mL
CC(C)C[C@H](NC(=O)CNC(=O)[C@H](CC(C)C)NC(=O)[C@@H](NC(=O)[C@H](C)NC(=O)[C@H](CCCNC(=N)N)NC(=O)[C@@H]1CCCN1C(=O)[C@H](CCCNC(=N)N)NC(=O)[C@H](CCCNC(=N)N)NC(=O)[C@H](C)NC(=O)[C@H](CC(C)C)NC(=O)[C@H](CC(C)C)NC(=O)CNC(=O)[C@H](CCCNC(=N)N)NC(=O)[C@@H](NC(=O)[C@H](C)NC(=O)[C@@H](N)CCCNC(=N)N)C(C)C)C(C)C)C(=O)N[C@@H](CC(C)C)C(=O)N[C@@H](C)C(=O)N[C@@H](CCCNC(=N)N)C(=O)N[C@@H](CCCNC(=N)N)C(=O)O [Peptide P88] (H-RAVRGLLARRPRAVLGLLARR-OH; N-terminus and C-terminus assumed)	25 µg/mL

— patent US11872262B2, “Means and methods for treating bacterial infections” (VIB VZW, priority 2017, dated 2024)
